Data reported in patent publication EP1622888B1, “BENZO-, NAPHTHO- AND PHENANTHROCHROMENES SUBSTITUTED WITH AN ARYLAMINE GROUP WITH PHOTOCHROMIC PROPERTIES” (Corning Incorporated, priority 2003, dated 2004).

Assay: Photochromic properties: UV-visible absorption of THF solutions before and after exposure to a UV source at 365 nm
Format: physicochemical
Settings: 5 mg in 50 ml of THF, optical path of 1 cm, after exposure to a UV source at 365 nm
Experimental: The photochromic properties of said compounds (1) to (6) and (C1) to (C5) were evaluated.
Said compounds were dissolved, at the rate of 5 mg in 50 ml of THF, and the UV-visible absorptions (optical path of 1 cm) is then measured before and after exposure to a UV source at 365 nm. The observation of the tints and the intensities developed is done by placing the solutions in the sun or before a solar simulator.

Structure (SMILES)	λMAX VIS: λ of the band of the lowest energy in the field of the visible spectrum of the compound after exposure	λVIS1: λ of the band of highest energy in the field of the visible spectrum of the compound after exposure
COc1cc2c3c(c4c(c2cc1OC)CCc1ccccc1-4)OC(c1ccccc1)(c1ccc(N(C)C)c(C)c1)C=C3 (centres unmarked) [(1)]	452 nm	
COc1cc2c3c(c4c(c2cc1OC)CCc1ccccc1-4)OC(c1ccccc1)(c1ccc(N(C)C)c(-c2ccccc2)c1)C=C3 (centres unmarked) [(2)]	465 nm	
COc1ccc(C2(c3ccc(N(C)C)c(C)c3)C=Cc3c4c(c5cc6c(cc5c3O2)OCC6)-c2ccccc2CC4)cc1 (centres unmarked) [(5)]	563 nm	444 nm
COc1cc2c3c(c4c(c2cc1OC)CCc1ccccc1-4)OC(c1ccccc1)(c1ccc(NC(C)=O)cc1)C=C3 (centres unmarked) [(C5), reference compound]	446 nm	

Second part, the compound after the results:

λMAX VIS: λ of the band of the lowest energy in the field of the visible spectrum of the compound after exposure	λVIS1: λ of the band of highest energy in the field of the visible spectrum of the compound after exposure	Structure (SMILES)
556 nm	435 nm	COc1ccc2c3c(c4c(c2c1)OC(c1ccccc1)(c1ccc(N(C)C)c(C)c1)C=C4)CCc1ccccc1-3 (centres unmarked) [(3)]
562 nm	469 nm	COc1ccc2c3c(c4c(c2c1)OC(c1ccccc1)(c1ccc(N(C)C)c(-c2ccccc2)c1)C=C4)CCc1ccccc1-3 (centres unmarked) [(4)]
561 nm	443 nm	COc1ccc(C2(c3ccc(N(C)C)c(Br)c3)C=Cc3c4c(c5cc6c(cc5c3O2)OCC6)-c2ccccc2CC4)cc1 (centres unmarked) [(6)]
507 nm		COc1cc2c3c(c4c(c2cc1OC)CCc1ccccc1-4)OC(c1ccccc1)(c1ccc(N(C)C)cc1)C=C3 (centres unmarked) [(C1), reference compound]
441 nm		COc1ccc(C2(c3ccccc3)C=Cc3c(c4c(c5cc(OC)c(OC)cc35)CCc3ccccc3-4)O2)cc1 (centres unmarked) [(C2), reference compound]
584 nm	482 nm	COc1ccc2c3c(c4c(c2c1)OC(c1ccccc1)(c1ccc(N(C)C)cc1)C=C4)CCc1ccccc1-3 (centres unmarked) [(C3), reference compound]
548 nm	429 nm	COc1ccc(C2(c3ccccc3)C=Cc3c4c(c5ccc(OC)cc5c3O2)-c2ccccc2CC4)cc1 (centres unmarked) [(C4), reference compound]
